Measured values as given in ChEMBL document CHEMBL3046099, “Effect of reduced risk pesticides on greenhouse vegetable arthropod biological control agents” (2011).

What was measured:
Orius insidiosus [1] = assay: Toxicity in Orius insidiosus infested green bean leaves assessed as mortality at recommended rate at 48 hr by leaf dip method (reference value: 20%); assay type: functional
Amblyseius swirskii [2] = assay: Toxicity in Typhlodromips swirskii infested green bean leaves assessed as mortality at 2 times recommended rate at 48 hr by leaf dip method (reference value: 10%); assay type: functional
Orius insidiosus [3] = assay: Toxicity in Orius insidiosus infested green bean leaves assessed as mortality at 2 times recommended rate at 48 hr by leaf dip method (reference value: 20%); assay type: functional
Eretmocerus eremicus [4] = assay: Toxicity in Eretmocerus eremicus infested green bean leaves assessed as mortality at 2 times of recommended rate at 48 hr by leaf dip method (reference value: 10%); assay type: functional
Eretmocerus eremicus [5] = assay: Toxicity in Eretmocerus eremicus infested green bean leaves assessed as mortality at recommended rate at 48 hr by leaf dip method (reference value: 10%); assay type: functional
Amblyseius swirskii [6] = assay: Toxicity in Typhlodromips swirskii infested green bean leaves assessed as mortality at recommended rate at 48 hr by leaf dip method (reference value: 10%); assay type: functional
Eretmocerus eremicus [7] = assay: Toxicity in Eretmocerus eremicus infested cucumber leaves assessed as mortality at recommended rate after 15 days under green house condition (reference value: 30%); assay type: functional, organism-based

| Compound | mortality (Orius insidiosus [1]) [%] | mortality (Amblyseius swirskii [2]) [%] | mortality (Orius insidiosus [3]) [%] | mortality (Eretmocerus eremicus [4]) [%] | mortality (Eretmocerus eremicus [5]) [%] | mortality (Amblyseius swirskii [6]) [%] | mortality (Eretmocerus eremicus [7]) [%] |
| --- | --- | --- | --- | --- | --- | --- | --- |
| CNC(=O)c1cc(Cl)cc(C)c1NC(=O)c1cc(Br)nn1-c1ncccc1Cl [CHLORANTRANILIPROLE] | 8 | 14.3 | 16 | 0 | 0 | 15.8 |  |
| CCCCC(C#N)(Cn1cncn1)c1ccc(Cl)cc1 (stereo not given) [MYCLOBUTANIL] |  | 17 |  | 5.3 | 5 | 7.5 |  |
| O=C([O-])O.[K+] [POTASSIUM BICARBONATE] |  | 8.8 |  | 2.5 | 2.5 | 19.8 |  |
| METAFLUMIZONE | 69 | 8.8 |  | 0 | 0 | 14.5 | 4.4 |
